Consider eight molecules from US10251886B1, “4-anilinoquinazoline derivative and albumin conjugates thereof” (National Chiao Tung University, priority 2018, dated 2019).

One data set concerns A549 cell. The data set can be described thus: Cell viability assay (MTT assay), A549 cells. It counts as cell-based. How it is done:
(§1) A549 cell (ATCC number: CCL-185) was a non-small cell lung carcinoma cell line, expressing wild type EGFR and K-RAS mutation (G12S). H1975 cell (ATCC number: CRL-5908) was a non-small cell lung carcinoma cell line expressing EGFR L858R/T790M mutation. A549 and H1975 cells were cultured in a complete medium at 37° C., 5% CO2 within a humidified incubator (310/Thermo, Forma Scientific, Inc., Marietta, Ohio). The complete medium was RPMI-1640 medium (Gibco, Life Technologies, Grand Island, N.Y., USA) supplemented with 10% fetal bovine serum (FBS), penicillin (100 units/mL), streptomycin (100 μg/mL), and sodium bicarbonate.
(§2) The cells were plated in 96-well plates at a density of 1×10^4 cells/well for 16-20 hours. Thereafter, the cells in each well were treated by 0.1 mL of a treating agent for 24 hours. The treating agents for the wells were different in treating chemicals and their concentrations. The treating chemicals were Erlotinib, Erlotinib analogues (CE 1 to 6 and E1), and BSA-conjugated Erlotinib Analogue (E2). Next, the cells were washed with phosphate-buffered saline (PBS) and were further cultured with fresh complete medium for 2 days. Subsequently, the cells were incubated with 0.5 mg/ml of 3-(4,5-dimethylthiazol-2-yl)-2,5-diphenyltetrazolium bromide (MTT) in fresh complete medium for 4 hours, followed by removal of the medium and addition of dimethyl sulfoxide (DMSO, 0.1 mL) to thereby allow […]. The absorbance of the reduced MTT (formazan) was read on a microplate reader (VERSAmax, Molecular Devices Inc., CA) at 565 nm. […] Tables 1 and 2, and FIGS. 1 and 2 show cell viability values for A549 cell using different treating chemicals in different concentrations. Table 3 and FIG. 3 show cell viability values for H1975 cell using two treating chemicals in different concentrations.
A general note: Formazan colour is commonly taken as a measure of viable cells.

The next data set relates to H1975 cell. The data set can be described thus: Cell viability assay (MTT assay), H1975 cells. The data set is classed as cell-based. The following applies: treated 24 hours, cultured 2 more days, Table 3. How it is done: as §1, §2
Setting [1] is: Homo sapiens, A549, 24 h, read-out: Cell viability (%).

Usually viability stands for the share of living cells, or the viability signal relative to a control.

The structures appear in SMILES notation. Where two headings read alike, the source gives them in different places.

As for `C#Cc1cccc(Nc2ncnc3cc(OCCO)c(OCCOC)cc23)c1` [CE4, 2-{[4-((3-ethynylphenyl)amino)-6-(2-methoxyethoxy)quinazolin-7-yl]oxy}ethanol], in the data set with A549 cell (setting [1]), the viability at 5 µM was determined as 74.5%, the viability at 10 µM was 68.4%, the viability at 20 µM was determined as 63.1% and the viability at 40 µM is 60.7%. Also, the viability at 60 µM in the data set on A549 cell (setting [1]) came to 57.8%.

As for `C#Cc1cccc(Nc2ncnc3cc(OCCN)c(OCCOC)cc23)c1` [CE6, 7-(2-aminoethoxy)-N-(3-ethynylphenyl)-6-(2-methoxyethoxy) quinazolin-4-amine], in the data set with A549 cell (setting [1]), the viability at 5 µM is 75.4%, the viability at 10 µM was 74.8%, the viability at 20 µM turned out to be 74.1% and the viability at 40 µM turned out to be 62.7%. The viability at 60 µM with A549 cell (setting [1]) was determined as 58.6%.

Take `C#Cc1cccc(Nc2ncnc3cc(OC)c(OCCOC)cc23)c1` [CE2, N-(3-ethynylphenyl)-7-methoxy-6-(2-methoxyethoxy) quinazolin-4-amine]: in the data set with A549 cell (setting [1]), the viability at 5 µM was found to be 69.5%, the viability at 10 µM turned out to be 60.9%, the viability at 20 µM turned out to be 62.4% and the viability at 40 µM worked out at 64.5%. Besides, in the data set on A549 cell (setting [1]), the viability at 60 µM stood at 61.6%.

In the case of `C#Cc1cccc(Nc2ncnc3cc(OC)c(OCc4ccccc4)cc23)c1` [CE1, 6-(benzyloxy)-N-(3-ethynylphenyl)-7-methoxyquinazolin-4-amine], in the data set on A549 cell (setting [1]), the viability at 5 µM came to 79.9%, the viability at 10 µM amounted to 74.7%, the viability at 20 µM is 73% and the viability at 40 µM was found to be 71.6%. The viability at 60 µM in the data set on A549 cell (setting [1]) was 63.4%.

`C#Cc1cccc(Nc2ncnc3cc(OCCI)c(OCCOC)cc23)c1` [Example E1, N-(3-ethynylphenyl)-7-(2-iodoethoxy)-6-(2-methoxyethoxy)quinazolin-4-amine]: in the data set on A549 cell (A549 cells, Tables 1 and 2, FIGS. 1 and 2), the “Cell viability in comparison with the commercial available drug (Erlotinib)” value is recorded as “significantly lower cell viability”. Further, in the data set on A549 cell (setting [1]), the viability at 5 µM was 32.8%, the viability at 10 µM came to 30.3%, the viability at 20 µM was determined as 26.3% and the viability at 40 µM was 28%. Further, the viability at 60 µM in the data set on A549 cell (setting [1]) was found to be 24.3%.

Regarding `C#Cc1cccc(Nc2ncnc3cc(OCCOC(C)=O)c(OCCOC)cc23)c1` [CE3, 2-{[4-((3-ethynylphenyl)amino)-6-(2-methoxyethoxy)quinazolin-7-yl]oxy}ethyl acetate], in the data set with A549 cell (setting [1]), the viability at 5 µM worked out at 79.3%, the viability at 10 µM was determined as 77.5%, the viability at 20 µM stood at 70.1% and the viability at 40 µM is 63%. Further, the viability at 60 µM in the data set on A549 cell (setting [1]) was determined as 59.5%.

Take `C#Cc1cccc(Nc2ncnc3cc(OCCOS(C)(=O)=O)c(OCCOC)cc23)c1` [CE5, 2-{[4-((3-ethynylphenyl)amino)-6-(2-methoxyethoxy)quinazolin-7-yl]oxy}ethyl methanesulfonate]: in the data set on A549 cell (setting [1]), the viability at 5 µM amounted to 73.7%, the viability at 10 µM was determined as 67.2%, the viability at 20 µM was 56.1% and the viability at 40 µM is 57.9%. In the data set with A549 cell (setting [1]), the viability at 60 µM amounted to 60.7%.

As to `C#Cc1cccc(Nc2ncnc3cc(OCCOC)c(OCCOC)cc23)c1` [Erlotinib, reference compound], in the data set with A549 cell (Homo sapiens, A549, 24 h, read-out: Cell viability (%), A549 cell, treating chemical 0.5 μM, treated 24 hours, cultured 2 more days, Table 2), the viability at 0.5 µM was determined as 89.3%. For the same molecule, the viability at 1 µM in the data set with A549 cell (Homo sapiens, A549, 24 h, read-out: Cell viability (%), A549 cell, treating chemical 1 μM, treated 24 hours, cultured 2 more days, Table 2) stood at 89.3%. Also, the viability at 5 µM in the data set on A549 cell (Homo sapiens, A549, 24 h, read-out: Cell viability (%), A549 cell, treating chemical 5 μM, treated 24 hours, cultured 2 more days, Table 1) is 73.8%; in the data set with A549 cell (Homo sapiens, A549, 24 h, read-out: Cell viability (%), A549 cell, treating chemical 5 μM, treated 24 hours, cultured 2 more days, Table 2) it was 84.2%. In the data set with A549 cell (Homo sapiens, A549, 24 h, read-out: Cell viability (%), A549 cell, treating chemical 10 μM, treated 24 hours, cultured 2 more days, Table 1), the viability at 10 µM turned out to be 71.7%. For the same molecule, in the data set on A549 cell (Homo sapiens, A549, 24 h, read-out: Cell viability (%), A549 cell, treating chemical 20 μM, treated 24 hours, cultured 2 more days, Table 1), the viability at 20 µM worked out at 65.9%. In the data set with A549 cell (Homo sapiens, A549, 24 h, read-out: Cell viability (%), A549 cell, treating chemical 40 μM, treated 24 hours, cultured 2 more days, Table 1), the viability at 40 µM worked out at 61.2%. Also, the viability at 60 µM in the data set with A549 cell (Homo sapiens, A549, 24 h, read-out: Cell viability (%), A549 cell, treating chemical 60 μM, treated 24 hours, cultured 2 more days, Table 1) stood at 58.5%. The “Cell viability (%)” value in the data set on H1975 cell (treating chemical 0.5 μM) is reported as 98.4% ± 2.7; in the data set on H1975 cell (treating chemical 1 μM), 93.1% ± 2.5; with H1975 cell (treating chemical 5 μM), 75.8% ± 4.5.
